Results on four compounds are retold here after US8258184B1, “Use of vegetable butter-based cetyl myristoleate for treating osteoarthritis and other musculoskeletal disease conditions and injuries” (Botanoceuticals, Inc., priority 2002, dated 2012).

In assay [1] the test system is severe arthritis caused by injuries in a horse. The assay can be described thus: Treatment of osteoarthritis caused by injuries in a horse (Example 3, case report). As to conditions: 30-year-old mare, previous treatments given together. Type of assay: in vivo. The source says:
Joint Response was tried as a last resort.

The test system of assay [2] is arthritis in Swiss albino mice. As to conditions: cited from earlier work.
In assay [3] the test system is arthritis in laboratory rats exposed to Freund's adjuvant. As to conditions: cited from earlier work.

For the compound `CCCCC1C(=O)N(c2ccccc2)N(c2ccccc2)C1=O` [Butte], the “alleviation of discomfort by previous treatments” value (shortened to “alleviation of discomfort”) in assay [1] is listed as “not working nearly well enough”.

For `N[C@H]1C(O)O[C@H](CO)[C@@H](O)[C@@H]1O` (some centres unmarked) [Glucosamine, glucosamine], the “alleviation of discomfort” value in assay [1] is “not working nearly well enough”.

On to `CS(C)(=O)=O` [MSM, methylsulfonylmethane], for which the “alleviation of discomfort” value in assay [1] is “not working nearly well enough”.

With `CCCC/C=C\CCCCCCCC(=O)OCCCCCCCCCCCCCCCC` [CM, cetyl myristoleate], the protection from arthritis result in assay [2] and in assay [3] was “protected” in each case.
